According to article PMC4754833, “Rilpivirine analogs potently inhibit drug-resistant HIV-1 mutants” (Retrovirology, 2016):

Assays:
[1] = system: HIV-1 RT mutant V106A/L234I; assay: single round infection assay, V106A/L234I; type: cell-based; settings: V106A/L234I vs WT
Experimental: (§1) The human osteosarcoma cell line, HOS, was obtained from Dr. Richard Schwartz (Michigan State University, East Lansing, MI) and grown in Dulbecco’s modified Eagle’s medium (Invitrogen, Carlsbad, CA) supplemented with 5 % (v/v) fetal bovine serum, 5 % newborn calf serum, and penicillin (50 units/ml) plus streptomycin (50 µg/ml; Quality Biological, Gaithersburg, MD). Virion production and single-round infectivity assays were used to determine antiviral activity (IC50 values) of the compounds as previously described.
pNLNgoMIVR-ΔEnv.LUC has been described previously. The RT open reading frame was removed from pNLNgoMIVR-ΔEnv.LUC (digestion with SpeI and SalI) and inserted between the SpeI and SalI sites of pBluescript II KS+. Using that construct as the wild-type template, we prepared the following HIV-1 RT mutants using the QuikChange II XL (Stratagene, La Jolla, CA) site-directed mutagenesis protocol kit: L100I, K103N, Y181C, Y188L, H221Y, K103N/Y181C, G190A, G190S, M230L, P236L, L100I/K103N, K103N/P225H, V106A/G190A/F227L, V106A, L234I, V106A/F227L, V106A/L234I, V106A/F227L/L234I, E40K, D67E, K101E, V111A, E138K, M184I, M184V, K101E/M184I, K101E/M184V, E138K/M184I, E138K/M184V, K101P, Y181I, and K101P/V179I. […]
(§2) 10.1186/s12977-016-0244-2 The IC50 values (nM) of RPV and the RPV analogs were determined against the NNRTI resistant mutants were measured by using a single round infection assay, n = 4. The concentrations (nM) are measured by reductions in luciferase reporter activity followed by the standard deviations. […]

HIV-1 RT mutant Y188L = system: HIV-1 RT mutant Y188L; design: method as in PMID 23217210; settings: previous study; cited from earlier work
HIV-1 RT mutant E138K = system: HIV-1 RT mutant E138K; design: method as in PMID 23217210; settings: previous study; cited from earlier work
HIV-1 RT mutant M184V = assay: single round infection assay, M184V; type: cell-based; settings: for IC50: Human immunodeficiency virus 1, M184V, ± SD, n=4; for fold-change of IC50 of the mutant relative to WT: M184V vs WT
Experimental: as §1
(§3) pNLNgoMIVR-ΔEnv.LUC has been described previously. The RT open reading frame was removed from pNLNgoMIVR-ΔEnv.LUC (digestion with SpeI and SalI) and inserted between the SpeI and SalI sites of pBluescript II KS+. Using that construct as the wild-type template, we prepared the following HIV-1 RT mutants using the QuikChange II XL (Stratagene, La Jolla, CA) site-directed mutagenesis protocol kit: L100I, K103N, Y181C, Y188L, H221Y, K103N/Y181C, G190A, G190S, M230L, P236L, L100I/K103N, K103N/P225H, V106A/G190A/F227L, V106A, L234I, V106A/F227L, V106A/L234I, V106A/F227L/L234I, E40K, D67E, K101E, V111A, E138K, M184I, M184V, K101E/M184I, K101E/M184V, E138K/M184I, E138K/M184V, K101P, Y181I, and K101P/V179I. The following sense oligonucleotides were used with matching cognate antisense oligonucleotides (not shown) (Integrated DNA Technologies, Coralville, IA) in the mutagenesis: L100I, 5′-[…]-3′; L100I 2-103, 5′-[…]-3′; K103N, 5′-[…]-3′; Y181C, 5′-[…]-3′; Y188L, 5′-[…]-3′; H221Y, 5′-[…]-3′; G190A, 5′-[…]-3′; G190S, 5′-[…]-3′; P225H, 5′-[…]-3′; F227, 5′-[…]-3′; M230L, 5′-[…]-3′; P236L, 5′-[…]-3′; V106A, 5′-[…]-3′; L234I, 5′-[…]-3′; E40K, 5′-[…]-3′; D67E, 5′-[…]-3′; K101E, 5′-[…]-3′; V111A, 5′-[…]-3′; E138K, 5′-[…]-3′; M184I, 5′-[…]-3′; M184V, 5′-[…]-3′; K101P, 5′-[…]-3′; Y181I, 5′-[…]-3′; K101P/V179I, 5′-[…]-3′. The double mutants K103N/Y181C, K103N/P225H, and L100I/K103N were made using the previously generated K103N mutant and the appropriate oligonucleotides to add the second mutation, Y181C, P225, and L100I respectively. The double mutants V106A/F227L and V106A/L234I were prepared using the previously generated V106A mutant and the appropriate oligonucleotides to add the second mutation, F227L and L234I, respectively. The double mutants K101E/M184I and K101E/M184V were constructed using the previously generated K101E mutant and the appropriate oligonucleotides to add the second mutation, M184I and M184V, respectively. The double mutants E138K/M184I and E138K/M184V were constructed using the previously generated E138K mutant and the appropriate oligonucleotides for the second mutation, M184I and M184V, respectively. The triple mutant V106A/F227L/L234I was made using the previously generated V106A/F227L double mutant and the appropriate oligonucleotides for the third mutation, L234I. The triple mutant V106A/G190A/F227L was constructed in a series of steps using the previously generated V106A mutant and the appropriate oligonucleotides for the second mutation, G190A, to generate the double mutant V106A/G190A, and then the triple mutant was made using double mutant V106A/G190A and oligonucleotides for the third mutation, F227L. […]
as §2

HIV-1 RT mutant M184I = assay: single round infection assay, M184I; type: cell-based; settings: for IC50: Human immunodeficiency virus 1, M184I, ± SD, n=4
Experimental: as §1
as §3, with “respectively.” for “respectively. The double mutants E138K/M184I and E138K/M184V were constructed using the previously generated E138K mutant and the appropriate oligonucleotides for the second mutation, M184I and M184V, respectively. The triple mutant V106A/F227L/L234I was made using the previously generated V106A/F227L double mutant and the appropriate oligonucleotides for the third mutation, L234I. The triple mutant V106A/G190A/F227L was constructed in a series of steps using the previously generated V106A mutant and the appropriate oligonucleotides for the second mutation, G190A, to generate the double mutant V106A/G190A, and then the triple mutant was made using double mutant V106A/G190A and oligonucleotides for the third mutation, F227L.”
as §2

HIV-1 RT mutant V111A = assay: single round infection assay, V111A; type: cell-based; settings: for IC50: Human immunodeficiency virus 1, V111A, ± SD, n=4; for fold-change of IC50 of the mutant relative to WT: V111A vs WT
Experimental: as §1, §3, §2

[2] = system: HIV-1 RT mutant K103N/Y181C; design: method as in PMID 23217210; settings: previous study; cited from earlier work

CC(=O)c1ccc(Nc2nc(Nc3c(C)cc(/C=C/C#N)cc3C)nc3[nH]cnc23)cc1 [compound 14]
fold-change of IC50 of the mutant relative to WT [1]: 3

Cc1cc(/C=C/C#N)cc(C)c1Nc1nc(Nc2ccc(C#N)cc2)ncc1[N+](=O)[O-] [compound 6]
IC50 (HIV-1 RT mutant Y188L): < 10 nM

COc1ccc(Cn2cnc3c(Nc4ccc(C#N)cc4)nc(Nc4c(C)cc(/C=C/C#N)cc4C)nc32)cc1 [compound 12]
IC50 (HIV-1 RT mutant E138K): 15 nM | IC50 (HIV-1 RT mutant M184V): 1.6 ± 0.42 nM | fold-change of IC50 of the mutant relative to WT (HIV-1 RT mutant M184V): 2 | IC50 (HIV-1 RT mutant M184I): 0.69 ± 0.2 nM | IC50 (HIV-1 RT mutant V111A): 0.76 ± 0.17 nM | fold-change of IC50 of the mutant relative to WT (HIV-1 RT mutant V111A): < 2

COc1ccc(Nc2nc(Nc3c(C)cc(/C=C/C#N)cc3C)nc3[nH]cnc23)cc1 [compound 16]
fold-change of IC50 of the mutant relative to WT (HIV-1 RT mutant M184V): < 2 | fold-change of IC50 of the mutant relative to WT (HIV-1 RT mutant M184I; M184I vs WT): < 2

Cc1cc(/C=C/C#N)cc(C)c1Nc1ccnc(Nc2ccc(C#N)cc2)n1 [RPV, rilpivirine]
IC50 [2]: < 5 nM | fold-change of IC50 of the mutant relative to WT (HIV-1 RT mutant V111A): < 2

Cc1cc(/C=C/C#N)cc(C)c1Nc1ncc2ncn(-c3ccc(C#N)cc3)c2n1 [compound 26]
IC50 (HIV-1 RT mutant M184V): 4.2 ± 0.99 nM | IC50 (HIV-1 RT mutant M184I): 5.6 ± 2.2 nM | fold-change of IC50 of the mutant relative to WT [1]: 5 | IC50 (HIV-1 RT mutant V111A): 1.5 ± 0.8 nM

Cc1cc(/C=C/C#N)cc(C)c1Nc1nc(Nc2ccc(C#N)cc2)c2nc[nH]c2n1 [compound 13]
IC50 (HIV-1 RT mutant Y188L): < 10 nM

Cc1cc(/C=C/C#N)cc(C)c1Nc1nc(Nc2ccc(C#N)cc2)ncc1N [compound 7]
IC50 [2]: < 5 nM | IC50 (HIV-1 RT mutant Y188L): < 10 nM

Cc1cc(/C=C/C#N)cc(C)c1-n1cnc2cnc(Nc3ccc(C#N)cc3)nc21 [compound 27]
IC50 (HIV-1 RT mutant Y188L): < 10 nM

Cc1cc(/C=C/C#N)cc(C)c1Nc1nc(Nc2ccc3scnc3c2)c2nc[nH]c2n1 [compound 21]
fold-change of IC50 of the mutant relative to WT [1]: 2 | IC50 (HIV-1 RT mutant Y188L): < 10 nM

Cc1cc(/C=C/C#N)cc(C)c1Nc1nc(Nc2ccc(F)cc2)c2nc[nH]c2n1 [compound 17]
IC50 (HIV-1 RT mutant M184V): 1.6 ± 0.26 nM | IC50 (HIV-1 RT mutant M184I): 1.7 ± 0.3 nM | IC50 (HIV-1 RT mutant V111A): 0.5 ± 0.17 nM
